Measurements reported in patent US20240376099A1, “COMPOUNDS AND COMPOSITIONS AS INHIBITORS OF ENDOSOMAL TOLL-LIKE RECEPTORS” (Novartis AG, priority 2016, published 2024).

Each compound was assayed against T1, TLR9 (Homo sapiens, UniProt Q9NR96) (assay: huPBMC TLR9 Antagonist IFNα Assay). Details: human PBMCs stimulated with ODN2216 0.3 μM, 14-16 hrs; IFNα2b AlphaLISA read-out.
T1 construct: Fresh blood was collected from normal human donors; endogenous in cells; host or cells: human PBMCs from fresh donor blood
T1 sequence (Q9NR96 26-1032): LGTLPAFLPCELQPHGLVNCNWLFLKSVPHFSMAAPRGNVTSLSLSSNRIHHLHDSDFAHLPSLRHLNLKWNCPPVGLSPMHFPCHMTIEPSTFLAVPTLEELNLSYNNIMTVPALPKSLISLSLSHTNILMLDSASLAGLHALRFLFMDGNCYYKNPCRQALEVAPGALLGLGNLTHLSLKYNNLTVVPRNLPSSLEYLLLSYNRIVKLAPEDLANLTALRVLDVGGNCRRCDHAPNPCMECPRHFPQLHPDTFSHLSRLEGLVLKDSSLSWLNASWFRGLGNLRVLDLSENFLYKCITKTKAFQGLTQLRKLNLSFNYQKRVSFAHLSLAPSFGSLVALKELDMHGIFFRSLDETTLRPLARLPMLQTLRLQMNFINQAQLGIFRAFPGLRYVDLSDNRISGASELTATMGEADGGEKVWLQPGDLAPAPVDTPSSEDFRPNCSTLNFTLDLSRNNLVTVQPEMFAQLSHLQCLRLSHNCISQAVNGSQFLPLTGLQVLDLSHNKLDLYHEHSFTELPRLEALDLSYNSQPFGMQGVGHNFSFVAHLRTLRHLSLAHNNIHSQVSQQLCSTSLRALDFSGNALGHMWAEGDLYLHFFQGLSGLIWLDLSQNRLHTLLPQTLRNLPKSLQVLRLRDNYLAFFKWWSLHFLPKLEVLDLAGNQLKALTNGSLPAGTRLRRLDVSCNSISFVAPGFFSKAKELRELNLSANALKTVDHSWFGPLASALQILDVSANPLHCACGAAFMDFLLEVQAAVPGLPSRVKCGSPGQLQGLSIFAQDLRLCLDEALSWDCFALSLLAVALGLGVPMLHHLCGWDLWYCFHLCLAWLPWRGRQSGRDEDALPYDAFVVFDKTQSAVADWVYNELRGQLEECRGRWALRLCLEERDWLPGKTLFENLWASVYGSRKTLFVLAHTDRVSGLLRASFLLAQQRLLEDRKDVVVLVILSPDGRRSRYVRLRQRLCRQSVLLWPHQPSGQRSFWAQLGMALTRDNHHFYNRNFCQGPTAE
Assay type: cell-based
How it was run: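 Human PBMCs from fresh donor blood (150,000 cells/well) stimulated 14–16 h at 37 °C with DOTAP-complexed ssRNA40 (final 1 μg/ml for TLR8, 10 μg/mL for TLR7) or ODN2216 (final 0.3 μM, TLR9), 0.25% DMSO, ten-point 1/3 compound dilutions. Supernatant IL-6 read by HTRF (TLR8); IFNα by IFNα2b AlphaLISA (TLR7/TLR9).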

IC50 [µM]	SMILES
0.515	Cc1cc(N2CCc3c(c(C)nn3CC34CCC(N5CCO[C@@H](C)C5)(CC3)CC4)C2)c2cnn(C)c2n1 [compound 109, (S)-4-(4-((5-(1,6-dimethyl-1H-pyrazolo[3,4-b]pyridin-4-yl)-3-methyl-4,5,6,7-tetrahydro-1H-pyrazolo[4,3-c]pyridin-1-yl)methyl)bicyclo[2.2.2]octan-1-yl)-2-methylmorpholine]
1.9	Cc1cc(N2CCc3c(c(C)nn3CC34CCC(N5C[C@@H](C)O[C@@H](C)C5)(CC3)CC4)C2)c2cnn(C)c2n1 [compound 110, (2S,6R)-4-(4-((5-(1,6-dimethyl-1H-pyrazolo[3,4-b]pyridin-4-yl)-3-methyl-4,5,6,7-tetrahydro-1H-pyrazolo[4,3-c]pyridin-1-yl)methyl)bicyclo[2.2.2]octan-1-yl)-2,6-dimethylmorpholine]
1.41	Cc1cc(N2CCc3c(c(C)nn3CC34CCC(N5C[C@H](C)O[C@@H](C)C5)(CC3)CC4)C2)c2cnn(C)c2n1 [compound 111, (2S,6S)-4-(4-((5-(1,6-dimethyl-1H-pyrazolo[3,4-b]pyridin-4-yl)-3-methyl-4,5,6,7-tetrahydro-1H-pyrazolo[4,3-c]pyridin-1-yl)methyl)bicyclo[2.2.2]octan-1-yl)-2,6-dimethylmorpholine]
1.41	Cc1cc(N2CCc3c(c(C)nn3CC34CCC(N5C[C@@H](C)O[C@H](C)C5)(CC3)CC4)C2)c2cnn(C)c2n1 [compound 113, (2R,6R)-4-(4-((5-(1,6-dimethyl-1H-pyrazolo[3,4-b]pyridin-4-yl)-3-methyl-4,5,6,7-tetrahydro-1H-pyrazolo[4,3-c]pyridin-1-yl)methyl)bicyclo[2.2.2]octan-1-yl)-2,6-dimethylmorpholine]
1.57	Cc1cc(N2CCc3c(c(C)nn3CC34CCC(N5CC6(COC6)C5)(CC3)CC4)C2)c2cnn(C)c2n1 [compound 116, 6-(4-((5-(1,6-dimethyl-1H-pyrazolo[3,4-b]pyridin-4-yl)-3-methyl-4,5,6,7-tetrahydro-1H-pyrazolo[4,3-c]pyridin-1-yl)methyl)bicyclo[2.2.2]octan-1-yl)-2-oxa-6-azaspiro[3.3]heptane]
1.44	CNCC(=O)NC12CCC(Cn3nc(C)c4c3CCN(c3cc(C)nc5c3cnn5C)C4)(CC1)CC2 [compound 121, N-(4-((5-(1,6-dimethyl-1H-pyrazolo[3,4-b]pyridin-4-yl)-3-methyl-4,5,6,7-tetrahydro-1H-pyrazolo[4,3-c]pyridin-1-yl)methyl)bicyclo[2.2.2]octan-1-yl)-2-(methylamino)acetamide]
2.23	Cc1cc(N2CCc3c(c(C)nn3CC34CCC(NCC(C)(C)O)(CC3)CC4)C2)c2cnn(C)c2n1 [compound 123, 1-((4-((5-(1,6-dimethyl-1H-pyrazolo[3,4-b]pyridin-4-yl)-3-methyl-4,5,6,7-tetrahydro-1H-pyrazolo[4,3-c]pyridin-1-yl)methyl)bicyclo[2.2.2]octan-1-yl)amino)-2-methylpropan-2-ol]
0.909	Cc1cc(N2CCc3c(c(C)nn3CC34CCC(NC(=O)C5CNCCO5)(CC3)CC4)C2)c2cnn(C)c2n1 (stereo not drawn) [compound 125, N-(4-((5-(1,6-dimethyl-1H-pyrazolo[3,4-b]pyridin-4-yl)-3-methyl-4,5,6,7-tetrahydro-1H-pyrazolo[4,3-c]pyridin-1-yl)methyl)bicyclo[2.2.2]octan-1-yl)morpholine-2-carboxamide]
0.792	Cc1cc(N2CCc3c(c(C)nn3CC34CCC(N5CCOC[C@@H]5C)(CC3)CC4)C2)c2cnn(C)c2n1 [compound 128, (S)-4-(4-((5-(1,6-dimethyl-1H-pyrazolo[3,4-b]pyridin-4-yl)-3-methyl-4,5,6,7-tetrahydro-1H-pyrazolo[4,3-c]pyridin-1-yl)methyl)bicyclo[2.2.2]octan-1-yl)-3-methylmorpholine]
1.05	Cc1cc(N2CCc3c(c(C)nn3CC34CCC(N5CCOC[C@H]5C)(CC3)CC4)C2)c2cnn(C)c2n1 [compound 129, (R)-4-(4-((5-(1,6-dimethyl-1H-pyrazolo[3,4-b]pyridin-4-yl)-3-methyl-4,5,6,7-tetrahydro-1H-pyrazolo[4,3-c]pyridin-1-yl)methyl)bicyclo[2.2.2]octan-1-yl)-3-methylmorpholine]
> 10	Cc1cc(N2CCc3c(c(C)nn3CC34CCC(NC(=O)C5CNC5)(CC3)CC4)C2)c2cnn(C)c2n1 [compound 131, N-(4-((5-(1,6-dimethyl-1H-pyrazolo[3,4-b]pyridin-4-yl)-3-methyl-4,5,6,7-tetrahydro-1H-pyrazolo[4,3-c]pyridin-1-yl)methyl)bicyclo[2.2.2]octan-1-yl)azetidine-3-carboxamide]

Further lines, the compound ahead of its results:

SMILES	IC50 [µM]
Cc1cc(N2CCc3c(c(C)nn3CC34CCC(NCC5CCC5)(CC3)CO4)C2)c2cnn(C)c2n1 [compound 112, N-(cyclobutylmethyl)-1-((5-(1,6-dimethyl-1H-pyrazolo[3,4-b]pyridin-4-yl)-3-methyl-4,5,6,7-tetrahydro-1H-pyrazolo[4,3-c]pyridin-1-yl)methyl)-2-oxabicyclo[2.2.2]octan-4-amine]	1.19
CCNCC(=O)NC12CCC(Cn3nc(C)c4c3CCN(c3cc(C)nc5c3cnn5C)C4)(CC1)CC2 [compound 114, N-(4-((5-(1,6-dimethyl-1H-pyrazolo[3,4-b]pyridin-4-yl)-3-methyl-4,5,6,7-tetrahydro-1H-pyrazolo[4,3-c]pyridin-1-yl)methyl)bicyclo[2.2.2]octan-1-yl)-2-(ethylamino)acetamide]	1.55
Cc1cc(N2CCc3c(c(C)nn3CC34CCC(NC(=O)CCN)(CC3)CC4)C2)c2cnn(C)c2n1 [compound 115, 3-amino-N-(4-((5-(1,6-dimethyl-1H-pyrazolo[3,4-b]pyridin-4-yl)-3-methyl-4,5,6,7-tetrahydro-1H-pyrazolo[4,3-c]pyridin-1-yl)methyl)bicyclo[2.2.2]octan-1-yl)propanamide]	> 10
CN[C@H](C)C(=O)NC12CCC(Cn3nc(C)c4c3CCN(c3cc(C)nc5c3cnn5C)C4)(CC1)CC2 [compound 117, (R)-N-(4-((5-(1,6-dimethyl-1H-pyrazolo[3,4-b]pyridin-4-yl)-3-methyl-4,5,6,7-tetrahydro-1H-pyrazolo[4,3-c]pyridin-1-yl)methyl)bicyclo[2.2.2]octan-1-yl)-2-(methylamino)propanamide]	0.954
CN[C@@H](C)C(=O)NC12CCC(Cn3nc(C)c4c3CCN(c3cc(C)nc5c3cnn5C)C4)(CC1)CC2 [compound 118]	0.775
CCNCC(=O)NC12CCC(Cn3nc(C)c4c3CCN(c3cc(C)nc5cn[nH]c35)C4)(CC1)CC2 [compound 124, 2-(ethylamino)-N-(4-((3-methyl-5-(5-methyl-1H-pyrazolo[4,3-b]pyridin-7-yl)-4,5,6,7-tetrahydro-1H-pyrazolo[4,3-c]pyridin-1-yl)methyl)bicyclo[2.2.2]octan-1-yl)acetamide]	> 10
CCNCCC(=O)NC12CCC(Cn3nc(C)c4c3CCN(c3cc(C)nc5c3cnn5C)C4)(CC1)CC2 [compound 126, N-(4-((5-(1,6-dimethyl-1H-pyrazolo[3,4-b]pyridin-4-yl)-3-methyl-4,5,6,7-tetrahydro-1H-pyrazolo[4,3-c]pyridin-1-yl)methyl)bicyclo[2.2.2]octan-1-yl)-3-(ethylamino)propanamide]	9.53
CCNC12CCC(Cn3nc(C)c4c3CCN(c3ccnc(-c5ccccc5)c3)C4)(CC1)CC2 [compound 127, N-ethyl-4-((3-methyl-5-(2-phenylpyridin-4-yl)-4,5,6,7-tetrahydro-1H-pyrazolo[4,3-c]pyridin-1-yl)methyl)bicyclo[2.2.2]octan-1-amine]	0.545
COCCNC12CCC(Cn3nc(C)c4c3CCN(c3ccnc(-c5ccccc5)c3)C4)(CC1)CC2 [compound 130, N-(2-methoxyethyl)-4-((3-methyl-5-(2-phenylpyridin-4-yl)-4,5,6,7-tetrahydro-1H-pyrazolo[4,3-c]pyridin-1-yl)methyl)bicyclo[2.2.2]octan-1-amine]	0.672
CCN(C)CC(=O)NC12CCC(Cn3nc(C)c4c3CCN(c3cc(C)nc5c3cnn5C)C4)(CC1)CC2 [compound 132, N-(4-((5-(1,6-dimethyl-1H-pyrazolo[3,4-b]pyridin-4-yl)-3-methyl-4,5,6,7-tetrahydro-1H-pyrazolo[4,3-c]pyridin-1-yl)methyl)bicyclo[2.2.2]octan-1-yl)-2-(ethyl(methyl)amino)acetamide]	0.26
